Peptide text beside a SMILES is read from it.

What is called melting point is the temperature of the solid-liquid transition. `COc1ccc(C(=O)c2noc(-c3ccc(Br)cc3)c2S(=O)(=O)c2ccccc2)cc1` yielded a melting point of 150 °C.

Regarding `O=S(=O)(Cl)Cc1ccc(Cl)cc1`, the melting point worked out at 95 °C.

Consider `N#CCCO`, for which the melting point is -46 °C.

On to `Nc1ccccc1-c1cnco1`, for which the melting point lay in the range of 54 to 56 °C.

Consider `CC(C)(C)c1cc(Br)cc(C(C)(C)C)c1O`, for which the melting point came to 83 °C.

`Oc1cccc2sccc12` gave a melting point of 79.8 °C.

In the case of `COc1cc2noc(-c3ccc(C)o3)c2cc1OC`, the melting point was determined as 146 °C.

Compound `CC(=O)CC(=O)Nc1ccccc1Cl` yielded a melting point of 105 °C.

On to `CC(=O)c1ccc[nH]1`, for which the melting point is 90 °C.

For `NC(=S)c1ccccc1N`, the melting point is 120 to 122 °C.

`Cc1nc(Cl)c(C#N)c(C)c1Cl` came in with a melting point of 82 to 83 °C.

Turning to `Cc1c(C(=O)O)cc(-c2ccccc2)n1CCCN1CCOCC1`, the melting point was 172 to 177 °C.

For the compound `Cc1cc(C=O)cc(C)c1O`, the melting point was 114 °C.

In turn, `CC(C)(Oc1ccc2ccccc2c1)C(=O)O` showed a melting point of 123 to 124 °C.

Consider `OCC1OC(O)C(O)C(O)C1O` (stereo unspecified), for which the melting point was 170 °C.

`CC(C)(C)c1cc(S)cc(C(C)(C)C)c1O` returned a melting point of 76 °C.

As for `CCC(O)(CC)C(=O)O`, the melting point lay within 78 to 82 °C.

With `c1ccc2c(c1)CNC2`, the melting point was 17 °C.

`N#CCCn1cc(C(F)(F)F)ccc1=O` returned a melting point of 89 to 90 °C.

`N#Cc1cccc(N=C=O)c1` showed a melting point of 53 °C.

In the case of `O=C1C2C3C=CC(C3)C2C(=O)N1O` (stereo unspecified), the melting point lay within 167 to 170 °C.

`COc1ccc(N/N=C(/C(=O)c2cccc3ccccc23)S(=O)(=O)c2ccccc2)cc1` registered a melting point of 118 °C.

Compound `CCOc1cc2c(cc1OC)CCNC2CC(C)C` (stereo unspecified) showed a melting point of 151 °C.

For the compound `Cc1nc(O)ccc1[N+](=O)[O-]`, the melting point worked out at 235 °C.

The compound `COc1ccc(-c2nnc3n2NC(c2ccc(Cl)cc2)S3)cc1` (stereo unspecified) showed a melting point of 160 °C.

Turning to `Cc1c(C#N)c(N)n(Cc2c(Cl)cccc2Cl)c1C`, the melting point lay in the range of 194 to 196 °C.

Compound `CC(C)[C@H](NC(=O)CN)C(=O)O` (H-Gly-Val-OH) had a melting point of 248 °C.

For `CCCCCCCCCCC#CC#CCCCCCCC(=O)O`, the melting point is 51 to 52 °C.

`S=C1NC(=S)C(c2ccccc2)(c2ccccc2)N1` had a melting point of 263 °C.

`N#CCc1cccc(CC#N)c1F`: the melting point lay within 75 to 77 °C.

In turn, `CCOC(=O)c1cnn(-c2ccc([N+](=O)[O-])cc2)c1N` showed a melting point of 203 to 204 °C.

`CCOC(=O)c1nnn2c1nc(S)c1ccccc12` came in with a melting point of 171 to 172 °C.

Consider `Nc1ccccc1Cn1cncn1`, for which the melting point lay within 56 to 57 °C.

For `Cc1cc(C)n(C(N)=O)n1`, the melting point is 113 to 115 °C.

Turning to `C/C(CCc1oc2ccccc2c1-c1ccc(C)o1)=N/O`, the melting point lay within 104 to 105 °C.

For the compound `OCC(CO)(CO)NCCCNC(CO)(CO)CO`, the melting point was determined as 169 °C.

Take `O=C1OC(c2ccccn2)Cc2ccccc21` (stereo unspecified): the melting point was determined as 156 °C.

Compound `O=C(O)c1ccccc1C(=O)O` had a melting point of 200 to 205 °C.

In turn, `CCCn1c(C(=O)O)cc2c(=O)n(C)c(=O)n(C)c21` showed a melting point of 139 °C.

As to `COC(=O)C1=C(C(=O)OC)C2(CCl)c3ccccc3C1c1ccccc12`, the melting point came out at 169 °C.

In turn, `CCCC(=O)C(=O)O` displayed a melting point of 6.5 °C.

Compound `CC(=O)N[C@@H](Cc1ccccc1)C(=O)O` yielded a melting point of 172 °C.

For `Nc1ccc(OCCN2CCOCC2)cc1`, the melting point was 53 to 57 °C.

The compound `Cc1cc(=O)oc2cc(O)ccc12` displayed a melting point of 194 °C.

As to `O=C(O)c1sc(Br)c2c1OCCO2`, the melting point was found to be 150 °C.

On to `O=C1c2ccccc2C(=O)N1CO`, for which the melting point came out at 144 °C.

`Nc1cc([N+](=O)[O-])ccc1Br` had a melting point of 139 °C.

For the compound `CC(=O)C1=C(C)C(C)(O)NC1=O` (stereo unspecified), the melting point is 172 to 174 °C.

For the compound `O=[N+]([O-])c1ccc(CBr)cc1`, the melting point came out at 99 °C.

`COc1ccccc1N/N=C(\C(N)=O)c1nc2ccccc2s1` yielded a melting point of 212 °C.

The compound `CC(=O)OC1(C(C)=O)CCC2C3C=C(Cl)C4=CC(=O)C=CC4(C)C3CCC21C` (stereo unspecified) gave a melting point of 168 °C.

In the case of `COc1cccc(Br)c1O`, the melting point stood at 64 °C.

The compound `CC(O)c1c(F)c(F)c(F)c(F)c1F` (stereo unspecified) yielded a melting point of 34 to 37 °C.

Turning to `CCOC(=O)c1c[nH]c2c(OC(F)(F)F)cccc2c1=O`, the melting point lay in the range of 235 to 240 °C.

Regarding `CC(=O)c1ccc2ccc3cccc4ccc1c2c34`, the melting point is 88 °C.

`CCCCCCCCCCCCCCCCCCCCCCCCCCCCCCCCCCC` displayed a melting point of 75 °C.

Take `c1ccc(C2Cc3ccccc32)nc1` (stereo unspecified): the melting point was in the range of 35 to 44 °C.

For the compound `O=C(C=Cc1ccccc1)c1ccc(F)cc1`, the melting point lay within 79 to 80 °C.

Regarding `O=C1c2ccccc2C(=C(c2ccccc2)c2ccccc2)c2ccccc21`, the melting point was in the range of 203 to 207 °C.

`C#CC(C)(C)Cl`: the melting point was -61 °C.

In the case of `COc1cc2c(c(O)c1OC)CNCC2`, the melting point is 188 °C.

`Cc1cc(C(=O)CBr)ccc1Cl` yielded a melting point of 56 to 57 °C.

For `CCCCC(=O)NC`, the melting point was -26 °C.

As for `COC(=O)C(Cl)C(Cl)c1cccc(C(Cl)C(Cl)C(=O)OC)c1` (stereo unspecified), the melting point came to 131 °C.

Take `c1ccc2c(c1)c1cccc3ccc4cccc2c4c31`: the melting point was 180 to 182 °C.

With `Cc1cc(C)cc(CC#N)c1`, the melting point was 44 °C.

As for `Cc1c(Cl)cccc1C(=O)O`, the melting point stood at 164 °C.

As for `CN(C)Cc1ncccc1O`, the melting point was 55 to 60 °C.

In turn, `CC12CCC(C(=CNC(N)=O)C1=O)C2(C)C` (stereo unspecified) had a melting point of 197 °C.

`NCCNCCNCCNCCN`: the melting point was -30 °C.

As to `CCCCOC(=O)c1ccccc1C(=O)OCc1ccccc1`, the melting point was 230 °C.

In the case of `CC(=O)c1cc(Cl)c(N)c(Cl)c1`, the melting point lay within 161 to 165 °C.

Turning to `CCCCCCCCCCCC[N+]1=C(C=Cc2cc([N+](=O)[O-])cc([N+](=O)[O-])c2[O-])C(C)(C)c2ccccc21`, the melting point amounted to 138 °C.

On to `O=[N+]([O-])C(Br)(Br)Br`, for which the melting point is 10 °C.

`OC1OC(C2CCCCC2)Cc2ccccc21` (stereo unspecified) registered a melting point of 87.2 to 90 °C.

Compound `O=NN(CCCl)C(=O)NC1CCCCC1` yielded a melting point of 90 °C.

Take `CCOC(=O)C(=Nn1nnc2ccccc21)C(=O)OCC`: the melting point came out at 100 °C.

As for `CC(=O)c1ccc(C(C)=O)c([N+](=O)[O-])c1`, the melting point is 46 °C.

Regarding `CC1Cc2c(Cl)cc(C(=O)NC(Cc3ccccc3)C(=O)O)c(O)c2C(=O)O1` (stereo unspecified), the melting point is 169 °C.

Regarding `CC1NC(C(=O)O)C(C)(C)S1` (mixture of isomers), the melting point is 166 to 168 °C.

Consider `CC12CCC3C(CCC4CC(C#N)CCC43C)C1CCC2=O` (stereo unspecified), for which the melting point was 164 °C.

`CCOC(=O)C(C#N)=CNc1ccccc1Cl` came in with a melting point of 165 to 167 °C.

With `CCC1(O)C(=O)OCc2c1cc1n(c2=O)Cc2cc3c(CN(C)C)c(O)ccc3nc2-1` (stereo unspecified), the melting point stood at 216 °C.

The compound `CC1CCC(C(C)C)C(OC(=O)C(=Cc2ccccc2)C(=O)c2ccccc2)C1` (stereo unspecified) showed a melting point of 65 °C.

Turning to `CC1(C)C(C=C(Cl)C(F)(F)F)C1C(=O)OC(C#N)c1cccc(Oc2ccccc2)c1` (stereo unspecified), the melting point was found to be 55.6 °C.

As to `Cn1c(=O)c(C2=NNC(=O)C2=CNc2ccc(Cl)cc2)c(O)c2ccccc21`, the melting point stood at 290 °C.

`CC(C)OC(=O)C1=C2c3ncccc3ON2C(Cl)C(Cl)C1Cl` (stereo unspecified) gave a melting point of 98 °C.

`CC(C)(C)c1ccc(-c2ccc(Br)cc2)cc1` registered a melting point of 142 °C.

For the compound `CCOc1ccc2cc(O)c(O)cc2c1`, the melting point worked out at 132 °C.

Consider `CC(=O)OC[C@H]1O[C@@H](O[C@H]2[C@H](OC(C)=O)[C@@H](OC(C)=O)[C@@H](OC(C)=O)O[C@@H]2COC(C)=O)[C@H](OC(C)=O)[C@@H](OC(C)=O)[C@@H]1OC(C)=O`, for which the melting point was determined as 230 °C.

Regarding `O=C(O)/C=C/C=C/C(=O)O`, the melting point worked out at 301 °C.

On to `Clc1ccc2nonc2c1`, for which the melting point lay in the range of 37 to 40 °C.

Compound `Cc1cc(C#N)ccc1[N+](=O)[O-]` had a melting point of 81 °C.

`O=C(O)CCCc1ccc2ccc3cccc4ccc1c2c34` registered a melting point of 185 to 190 °C.

For the compound `N[C@@H](CCCC(=O)O)C(=O)O`, the melting point was determined as 206 °C.

In turn, `NC(=O)c1cc(O)c(O)c(O)c1` registered a melting point of 240 to 243 °C.

Turning to `NC(=S)Nc1cc(C(F)(F)F)cc(C(F)(F)F)c1`, the melting point lay within 166 to 168 °C.

As for `CC1CC(C)(C)CC1=O` (stereo unspecified), the melting point was -25.6 °C.

With `BrCc1cccc2nsnc12`, the melting point lay in the range of 89 to 92 °C.

In turn, `CCCCCCCCCCCCCCCCCCCCCCCCCCCCCC[Si](C)(C)Cl` returned a melting point of 60 to 80 °C.

Compound `O=[N+]([O-])c1ccc(Nc2ccc(O)cc2)c([N+](=O)[O-])c1` showed a melting point of 194 °C.

For `O=C(O)CCCCCCCO`, the melting point lay within 51 to 57 °C.

Take `C=C=Cn1cnc2c(N)ncnc21`: the melting point amounted to 186 °C.

The compound `C=CCC(/C=C1\C(=O)C2(C)CCC1C2(C)C)(/C=C1\C(=O)C2(C)CCC1C2(C)C)C(=O)OCC` (stereo unspecified) yielded a melting point of 148 °C.

`CNC(=C[N+](=O)[O-])NCCSCc1csc(CN(C)C)n1`: the melting point was 203 °C.

As to `O=C1CCCCCO1`, the melting point is -1 °C.

In turn, `CCc1cc2cc(OC)c(OC)cc2c(Cc2ccccc2)n1` registered a melting point of 78 °C.

Turning to `COc1ccc(Br)cc1C=O`, the melting point was 116 °C.

For the compound `O=C1CCCc2c1c1c3c(ccc4c3c2CCC4)CCC1`, the melting point was 146 to 149 °C.

In the case of `CC1(C)CC1`, the melting point is -109 °C.

For `O=C(c1ccc(C(=O)C(Cl)(Cl)Cl)cc1)C(Cl)Cl`, the melting point is 136 °C.

For the origin of these results see a melting point compilation (Tetko et al.).
